Assay results as given in US11154519B2, “Inhibitors and their uses” (MEDICAL RESEARCH COUNCIL, priority 2015, dated 2021).
Read-outs that look alike come from different tables or passages of the source.

Experiments:
HeLa cells [1] = assay: Cytoprotection against ER stress (tunicamycin), IncuCyte; format: cell-based; conditions: Homo sapiens, 250 ng/ml Tunicamycin, 72 hours, compound 0-20 μM, read-out: Cytoprotection from Tm (compared to GNB)
Procedure: (§1) HeLa cells (40,000 cells/ml) were plated in a 96-well plate and treated with different concentrations (0-20 μM) of a compound as indicated in the presence of 250 ng/ml Tunicamycin for 72 hours. To monitor cell death 1/2000 dilution of the CellTox green dye (Promega) was added to the media. The growth of the cells was monitored over time and pictures taken every 2 hours with the IncuCyte ZOOM system and analysed by the IncuCyte ZOOM software (Essen BioScience). […] Cytoprotection against ER stress can be measured by a suitable assay. In this instance, cytoprotection was measured in HeLa cells in which ER stress was elicited by the addition of media containing tunicamycin, a drug that blocks N-glycosylation, thereby preventing protein folding and inducing the unfolded protein response. Cell viability was then detected in the presence and absence of a compound listed in Table 1 after a set period of time, by monitoring cell growth over time. Cytoprotection from ER stress was measured in terms of the percentage increase in viable cells (relative to control) after ER stress.

HeLa cells [2] = assay: Cell death dose response (CellTox green, IncuCyte); format: cell-based; conditions: for EC50: Homo sapiens, area under % cell death vs time curve against log conc, read-out: Effect on cell death ⇒ EC50; for Effect on cell death: IncuCyte, 0-20 μM
Procedure: Toxicity of the compounds is assessed using Cell viability Counting Kit-8 (Dojindo) or in a Incucyte (Essenbioscience) using both phase contrast and IncuCyte™ Cytotox Green Reagent.
as §1
EC50 were extrapolated from dose response experiments on cell death. Data from IncuCyte was plotted and analysed in Prism. The “% of cell death” for each data point. For each concentration there is a % of cell death vs time, the area under the curve was taken and plotted against log conc=>EC50 (analysis in Prism).

PPP1R15A-PP1 complex = target: T1, PPP1R15A-PP1 complex (Homo sapiens, UniProt O75807); assay: SPR steady-state binding to R15A-PP1 holophosphatase
T1 construct: cDNAs encoding amino acids 325-636 of PPP1R15A and 340-698 of PPP1R15B were His-tagged and cloned into pMAL-c5x; made in house; host or cells: R15A: E. coli BL21-Gold (pMAL-c5x); PP1γ: Sf9 insect cells (baculovirus, pDW464)
T1 sequence (O75807 325-636): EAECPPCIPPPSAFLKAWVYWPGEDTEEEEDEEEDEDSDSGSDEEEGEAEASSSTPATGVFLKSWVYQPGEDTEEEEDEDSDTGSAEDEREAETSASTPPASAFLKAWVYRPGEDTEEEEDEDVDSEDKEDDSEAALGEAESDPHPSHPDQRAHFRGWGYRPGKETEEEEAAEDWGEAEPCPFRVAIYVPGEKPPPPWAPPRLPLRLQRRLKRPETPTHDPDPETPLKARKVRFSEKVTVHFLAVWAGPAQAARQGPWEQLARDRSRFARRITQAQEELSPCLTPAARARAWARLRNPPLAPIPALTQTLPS
T1 sequence (P36873 whole entry partner, the tested form may be a part): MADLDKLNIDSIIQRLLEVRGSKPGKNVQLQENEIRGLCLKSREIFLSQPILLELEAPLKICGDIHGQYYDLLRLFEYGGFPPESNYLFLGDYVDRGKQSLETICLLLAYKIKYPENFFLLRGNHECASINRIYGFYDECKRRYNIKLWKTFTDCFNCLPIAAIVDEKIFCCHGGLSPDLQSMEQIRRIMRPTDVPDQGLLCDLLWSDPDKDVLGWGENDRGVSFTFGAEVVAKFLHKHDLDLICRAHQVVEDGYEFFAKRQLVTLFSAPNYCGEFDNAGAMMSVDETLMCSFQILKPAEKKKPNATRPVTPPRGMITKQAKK
Procedure: PPP1R15A^325-636 and PPP1R15B^340-698 were expressed and purified as follows: the cDNAs encoding amino acids 325-636 of PPP1R15A and 340-698 of PPP1R15B were His-tagged and cloned into pMAL-c5x. Recombinant PPP1R15A/B were expressed in BL21-Gold cells and purified by affinity chromatography on a HisTrap HP column (GE Healthcare), followed by a MBPTrap HP column (GE Healthcare). The proteins were analyzed on BOLT SDS-PAGE 4-12% Bis-Tris gels (Life Technologies) stained with SimplyBlue SafeStain (Life Technologies). cDNA encoding for human PP1γ was cloned into the baculovirus transfer vector pDW464 to add a biotin acceptor peptide (BAP). The vector also encodes for the E. coli biotin holoenzyme synthetase (BirA), so that BAP-tagged proteins can be biotinylated in vivo in Spodoptere frugiperda (Sf9) insect cells (Duffy et al., Anal. Biochem., 262, 122-128, 1998). The Bac-to-Bac baculovirus expression system (Life Technologies) was used to generate the recombinant bacmid DNA and Sf9 insect cells were used to amplify the viral stocks Cultures were harvested by centrifuging at 1,200 g for 15 minutes, cell pellets were resuspended in lysis buffer (50 mM Tris pH 7.4, 150 mM NaCl, 0.2% Triton, 5% Glycerol, 1 PiC tablet (Roche) per 50 ml and 0.2 mM PMSF) and followed by gentle sonication. The protein was first purified on a 5 ml HiTrap Q HP column (GE Healthcare) followed by a HiLoad 16/600 Superdex 200 column (GE Healthcare). The positive fractions confirmed by SDS-PAGE and western blot were pooled, concentrate to ˜1 μM and stored at −80° C.
A Biacore T200 (GE Healthcare) system was used for all experiments and biotinylated PP1 was captured using a Sensor Chip SA (GE Healthcare, catalog no BR-1005-31). The streptavidin coated surface was activated by 1 min injection with a solution of 50 mM NaOH and 1 M NaCl. Biotin-PP1 was diluted in the running buffer (50 mM Tris pH 7.5, 100 mM NaCl, 0.1 mM EGTA, 1 mM MnCl2, 0.05% Tween 20) and injected at approximately 300 nM concentration directly to streptavidin coated surface for 100 sec or to reach immobilization level of biotin-PP1 corresponding to ˜7000 RU. A blank immobilization was performed for one of the SA sensor chip surface to use as a reference.
With minor deviations, the same procedure and conditions were used in all binding experiments. Small molecules were stored as 50 mM stock solutions in 100% DMSO. Prior to determining binding constants, serial dilutions of either 12 or 8 concentrations of the compounds were prepared in the running buffer in a 96-well plate. Prior to each compound dilution series the regulatory subunit, R15A or R15B, was diluted to […] in the running buffer and captured on the biotin-PP1 surface, to form the holophosphatase complex on the sensor chip surface. Then, without regenerating the surface, the compound dilution series was injected onto the surface of the chip Sensorgrams were analyzed using the Biacore T200 evaluation software and the binding constants determined based on a steady-state model. Kinetic experiments are carried out using different concentrations of the compound and their respective equilibrium binding levels determined.
Surface Plasmon Resonance (SPR) was used to measure the binding affinity of compounds to the PPP1R15A/B-PP1 phosphatase complex. Biotin acceptor peptide (BAP) was fused to the N-terminus of PP1γ, which enables the biotinylation of the BAP-tagged protein in Sf9 insect cells. After purification the BAP-PP1γ protein was captured on a streptavidin sensor chip (SA-chip, GE healthcare) to a response level of ˜5.000 RU. Using controlled biotinylation enables orientated and uniform immobilization on the sensor chip surface. The PP1γ was then used to capture PPP1R15A/B and form a holophosphatase complex on the surface of the streptavidin chip. This complex can then be used to test binding of compounds. 10 μM PPP1R15A/B protein concentration was used to form the holophosphatase complex during a 80 s injection. […]

[3] = SPR steady-state, MBP-R15A325-636-His captured on bio-PP1c, 10° C., read-out: R15A (KD)

SMILES	Emax (HeLa cells [1]) [%]	EC50 (HeLa cells [2]) [µM]	Effect on cell death (HeLa cells [2])	Kd (PPP1R15A-PP1 complex; [3]) [µM]	Kd (PPP1R15A-PP1 complex; SPR, FIG. 1, read-out: KD for PPP1R15A-PP1) [µM]
[H]/N=C(\N)NN=Cc1ccc(Cl)cc1 [Compound 1, (E)-2-((4-chlorophenyl)methylene)hydrazine-1-carboximidamide]	0	4.9	Yes	8.32 ± 0.14	
N=C(N)N/N=C/c1cc(Cl)c(Cl)c(Cl)c1 [Compound 3, (E)-2-(3,4,5-trichlorobenzylidene)hydrazine-1-carboximidamide]	52	9.17	Yes	4.49 ± 1.47	
[H]/N=C(\N)NN=Cc1cc(Cl)c(F)c(Cl)c1 [Compound 5, (E)-2-(3,5-dichloro-4-fluorobenzylidene)hydrazine-1-carboximidamide]	48	9.46	Yes	8.45 ± 0.41	
[H]/N=C(\N)NN=Cc1ccc(Cl)c(Cl)c1Cl [Compound 6, (E)-2-(2,3,4-trichlorobenzylidene)hydrazine-1-carboximidamide]	61	9.65	Yes	5.43 ± 1.1	
[H]/N=C(\N)NN=Cc1cc(F)c(Cl)cc1Cl [Compound 7, (E)-2-(2,4-dichloro-5-fluorobenzylidene)hydrazine-1-carboximidamide]	46	11.5	Yes	10.2 ± 2.57	
[H]/N=C(\N)NN=Cc1ccc(Cl)c(F)c1 [Compound 8, (E)-2-(4-chloro-3-fluorobenzylidene)hydrazine-1-carboximidamide]	0	11.7	Yes	6.37 ± 1.03	
[H]/N=C(\N)NN=Cc1cccc(Cl)c1Br [Compound 9, (E)-2-(2-bromo-3-chlorobenzylidene)hydrazine-1-carboximidamide]	67	12	Yes	13.6 ± 0.8	
[H]/N=C(\N)NN=Cc1cc(Cl)cc(Cl)c1Cl [Compound 10, (E)-2-(2,3,5-trichlorobenzylidene)hydrazine-1-carboximidamide]	85	12.5	Yes	0.391 ± 0.14	
[H]/N=C(\N)NN=Cc1ccc(Cl)c(Cl)c1 [Compound 11, (E)-2-(3,4-dichlorobenzylidene)hydrazine-1-carboximidamide]	34	12.7	Yes	16.2 ± 2.1	
[H]/N=C(\N)NN=Cc1ccc(Cl)c(F)c1Cl [Compound 13, (E)-2-(2,4-dichloro-3-fluorobenzylidene)hydrazine-1-carboximidamide]	73	15.5	Yes	4.62 ± 0.59	
[H]/N=C(\N)NN=Cc1ccc(F)c(Cl)c1Cl [Compound 14, (E)-2-(2,3-dichloro-4-fluorobenzylidene)hydrazine-1-carboximidamide]	100	18.4	Yes	5.45 ± 1.48	
[H]/N=C(\N)NN=Cc1ccc(F)c(Cl)c1 [Compound 15, (E)-2-(3-chloro-4-fluorobenzylidene)hydrazine-1-carboximidamide]	46	19.5	Yes	11.2	
[H]/N=C(\N)NN=Cc1cccc(Cl)c1Cl [Compound 16, (E)-2-(2,3-dichlorobenzylidene)hydrazine-1-carboximidamide]	92	20.8	Yes	1.05 ± 0.013	1
[H]/N=C(\N)NN=Cc1ccccc1F [Compound 17, (E)-2-(2-fluorobenzylidene)hydrazine-1-carboximidamide]	66		No	13 ± 0.5	
N=C(N)N/N=C/c1cc(Cl)c(Cl)cc1F [Compound 18, (E)-2-(4,5-dichloro-2-fluorobenzylidene)hydrazine-1-carboximidamide]	54	23.8	Yes	10.2 ± 1.62	
[H]/N=C(\N)NN=Cc1cc(F)ccc1Cl [Compound 20, (E)-2-(2-chloro-5-fluorobenzylidene)hydrazine-1-carboximidamide]	88	37.8	Yes	5.67 ± 0.72	
[H]/N=C(\N)NN=Cc1cccnc1Cl [Compound 21, (E)-2-((2-chloropyridin-3-yl)methylene)hydrazine-1-carboximidamide]	41		No	0.832	
[H]/N=C(\N)NN=Cc1ccc(Cl)nc1Cl [Compound 22, (E)-2-((2,6-dichloropyridin-3-yl)methylene)hydrazine-1-carboximidamide]	48		No	7.62	
[H]/N=C(\N)NN=Cc1cccc(F)c1 [Compound 23, (E)-2-(3-fluorobenzylidene)hydrazine-1-carboximidamide]	53		No	1.42	
[H]/N=C(\N)NN=Cc1cccc(Cl)c1 [Compound 24, (E)-2-(3-chlorobenzylidene)hydrazine-1-carboximidamide]	62		No	18.1 ± 7.57	
[H]/N=C(\N)NN=Cc1cc(Cl)ccc1Cl [Compound 26, (E)-2-(2,5-dichlorobenzylidene)hydrazine-1-carboximidamide]	57		No	23.1 ± 0.9	
[H]/N=C(\N)NN=Cc1cc(F)cc(F)c1Cl [Compound 29, (E)-2-(2-chloro-3,5-difluorobenzylidene)hydrazine-1-carboximidamide]	62		No	7.87 ± 1.48	
[H]/N=C(\N)NN=Cc1cccc(Cl)c1F [Compound 30, (E)-2-(3-chloro-2-fluorobenzylidene)hydrazine-1-carboximidamide]	85		No	5.15 ± 1.7	
